How the values were obtained:
[1] = target: T1, MAO-A (amine oxidase [flavin-containing] A) (Homo sapiens, UniProt P21397); experiment: Inhibition of recombinant MAO-A (unknown origin) using luciferin derivative as substrate measured at 1 uM for 60 mins by plate reader analysis relative to control; settings: probe luciferin derivative
T1 sequence (P21397 whole entry): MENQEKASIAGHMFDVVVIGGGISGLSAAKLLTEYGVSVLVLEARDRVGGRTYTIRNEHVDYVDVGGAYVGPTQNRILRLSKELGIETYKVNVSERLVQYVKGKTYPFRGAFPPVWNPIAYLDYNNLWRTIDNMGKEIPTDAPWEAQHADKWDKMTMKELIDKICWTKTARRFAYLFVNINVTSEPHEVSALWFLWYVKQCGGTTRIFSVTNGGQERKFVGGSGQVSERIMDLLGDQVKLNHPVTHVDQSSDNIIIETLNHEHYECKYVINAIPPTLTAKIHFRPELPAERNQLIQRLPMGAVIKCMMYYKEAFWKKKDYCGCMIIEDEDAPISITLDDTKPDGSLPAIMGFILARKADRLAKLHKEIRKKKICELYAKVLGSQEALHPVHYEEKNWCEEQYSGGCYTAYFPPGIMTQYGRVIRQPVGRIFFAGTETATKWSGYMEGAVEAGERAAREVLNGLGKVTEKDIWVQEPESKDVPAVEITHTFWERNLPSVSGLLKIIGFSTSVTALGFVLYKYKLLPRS

[2] = target: T2, MAO-B (amine oxidase [flavin-containing] B) (Homo sapiens, UniProt P27338); experiment: Inhibition of recombinant MAO-B (unknown origin) using luciferin derivative as substrate measured at 1 uM for 60 mins by plate reader analysis relative to control; settings: probe luciferin derivative
T2 sequence (P27338 whole entry): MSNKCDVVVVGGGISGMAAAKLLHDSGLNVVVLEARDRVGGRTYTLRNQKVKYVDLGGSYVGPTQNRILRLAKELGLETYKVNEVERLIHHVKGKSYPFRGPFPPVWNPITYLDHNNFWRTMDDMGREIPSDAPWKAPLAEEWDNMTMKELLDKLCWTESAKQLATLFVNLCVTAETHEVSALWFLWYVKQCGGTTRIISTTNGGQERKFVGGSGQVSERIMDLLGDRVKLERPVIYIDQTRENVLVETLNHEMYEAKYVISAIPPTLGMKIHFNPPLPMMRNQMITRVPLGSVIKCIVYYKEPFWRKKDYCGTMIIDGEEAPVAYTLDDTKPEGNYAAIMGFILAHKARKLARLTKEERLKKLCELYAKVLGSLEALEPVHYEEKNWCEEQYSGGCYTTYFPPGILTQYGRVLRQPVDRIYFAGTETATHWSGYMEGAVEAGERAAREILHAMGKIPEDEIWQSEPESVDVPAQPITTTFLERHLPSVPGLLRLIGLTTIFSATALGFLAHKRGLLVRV

NCI-H1650 [3] = experiment: Induction of apoptosis in human NCI-H1650 cells assessed as viable cells measured at 1 uM for 24 hrs by annexin V-PI staining based flow cytometric analysis (reference value: 87.4%); format: functional; settings: read-out: Activity
NCI-H1650 [4] = experiment: Induction of apoptosis in human NCI-H1650 cells assessed as early apoptotic cells measured at 1 uM for 24 hrs by annexin V-PI staining based flow cytometric analysis (reference value: 11.2%); format: functional
NCI-H1650 [5] = experiment: Induction of apoptosis in human NCI-H1650 cells assessed as late apoptotic cells measured at 1 uM for 24 hrs by annexin V-PI staining based flow cytometric analysis (reference value: 1.46%); format: functional
NCI-H1650 [6] = experiment: Induction of apoptosis in human NCI-H1650 cells assessed as necrotic cells measured at 1 uM for 24 hrs by annexin V-PI staining based flow cytometric analysis (reference value: 0.008%); format: functional
NCI-H1650 [7] = experiment: Induction of apoptosis in human NCI-H1650 cells assessed as viable cells measured at 2 uM for 24 hrs by annexin V-PI staining based flow cytometric analysis (reference value: 87.4%); format: functional; settings: read-out: Activity
NCI-H1650 [8] = experiment: Induction of apoptosis in human NCI-H1650 cells assessed as early apoptotic cells measured at 2 uM for 24 hrs by annexin V-PI staining based flow cytometric analysis (reference value: 11.2%); format: functional
NCI-H1650 [9] = experiment: Induction of apoptosis in human NCI-H1650 cells assessed as late apoptotic cells measured at 2 uM for 24 hrs by annexin V-PI staining based flow cytometric analysis (reference value: 1.46%); format: functional
NCI-H1650 [10] = experiment: Induction of apoptosis in human NCI-H1650 cells assessed as necrotic cells measured at 2 uM for 24 hrs by annexin V-PI staining based flow cytometric analysis (reference value: 0.008%); format: functional
NCI-H1650 [11] = experiment: Induction of apoptosis in human NCI-H1650 cells assessed as viable cells measured at 4 uM for 24 hrs by annexin V-PI staining based flow cytometric analysis (reference value: 87.4%); format: functional; settings: read-out: Activity
NCI-H1650 [12] = experiment: Induction of apoptosis in human NCI-H1650 cells assessed as early apoptotic cells measured at 4 uM for 24 hrs by annexin V-PI staining based flow cytometric analysis (reference value: 11.2%); format: functional
NCI-H1650 [13] = experiment: Induction of apoptosis in human NCI-H1650 cells assessed as late apoptotic cells measured at 4 uM for 24 hrs by annexin V-PI staining based flow cytometric analysis (reference value: 1.46%); format: functional
NCI-H1650 [14] = experiment: Induction of apoptosis in human NCI-H1650 cells assessed as necrotic cells measured at 4 uM for 24 hrs by annexin V-PI staining based flow cytometric analysis (reference value: 0.008%); format: functional
NCI-H1650 [15] = experiment: Induction of apoptosis in human NCI-H1650 cells assessed as apoptotic cells measured at 1 uM for 24 hrs by annexin V-PI staining based flow cytometric analysis (reference value: 12.7%); format: functional
NCI-H1650 [16] = experiment: Induction of apoptosis in human NCI-H1650 cells assessed as apoptotic cells measured at 2 uM for 24 hrs by annexin V-PI staining based flow cytometric analysis (reference value: 12.7%); format: functional
NCI-H1650 [17] = experiment: Induction of apoptosis in human NCI-H1650 cells assessed as apoptotic cells measured at 4 uM for 24 hrs by annexin V-PI staining based flow cytometric analysis (reference value: 12.7%); format: functional
NCI-H1650 [18] = experiment: Induction of cell cycle arrest in human NCI-H1650 cells assessed as accumulation of cells in G1 phase measured at 1 uM for 24 hrs by annexin V-PI staining based flow cytometric analysis (reference value: 52.04%); format: functional
NCI-H1650 [19] = experiment: Induction of cell cycle arrest in human NCI-H1650 cells assessed as accumulation of cells in G2 phase measured at 1 uM for 24 hrs by annexin V-PI staining based flow cytometric analysis (reference value: 18.00%); format: functional
NCI-H1650 [20] = experiment: Induction of cell cycle arrest in human NCI-H1650 cells assessed as accumulation of cells in S phase measured at 1 uM for 24 hrs by annexin V-PI staining based flow cytometric analysis (reference value: 29.97%); format: functional
NCI-H1650 [21] = experiment: Induction of cell cycle arrest in human NCI-H1650 cells assessed as accumulation of cells in G1 phase measured at 2 uM for 24 hrs by annexin V-PI staining based flow cytometric analysis (reference value: 52.04%); format: functional
NCI-H1650 [22] = experiment: Induction of cell cycle arrest in human NCI-H1650 cells assessed as accumulation of cells in G2 phase measured at 2 uM for 24 hrs by annexin V-PI staining based flow cytometric analysis (reference value: 18.00%); format: functional
NCI-H1650 [23] = experiment: Induction of cell cycle arrest in human NCI-H1650 cells assessed as accumulation of cells in S phase measured at 2 uM for 24 hrs by annexin V-PI staining based flow cytometric analysis (reference value: 29.97%); format: functional
NCI-H1650 [24] = experiment: Induction of cell cycle arrest in human NCI-H1650 cells assessed as accumulation of cells in G1 phase measured at 4 uM for 24 hrs by annexin V-PI staining based flow cytometric analysis (reference value: 52.04%); format: functional
NCI-H1650 [25] = experiment: Induction of cell cycle arrest in human NCI-H1650 cells assessed as accumulation of cells in G2 phase measured at 4 uM for 24 hrs by annexin V-PI staining based flow cytometric analysis (reference value: 18.00%); format: functional
NCI-H1650 [26] = experiment: Induction of cell cycle arrest in human NCI-H1650 cells assessed as accumulation of cells in S phase measured at 4 uM for 24 hrs by annexin V-PI staining based flow cytometric analysis (reference value: 29.97%); format: functional
NCI-H1650 [27] = experiment: Antitumor activity against human NCI-H1650 cells xenografted in mouse assessed as reduction of tumor weight at 10 mg/kg, po for 21 days relative to control; format: ADME, organism-based; parameters: scale not given: the % may be the effect or the level left; settings: in vivo, 504 h, time 21 day
NCI-H1650 [28] = experiment: Antitumor activity against human NCI-H1650 cells xenografted in mouse assessed as reduction of tumor weight at 20 mg/kg, po for 21 days relative to control; format: ADME, organism-based; parameters: scale not given: the % may be the effect or the level left; settings: in vivo, 504 h, time 21 day
[29] = Toxicity in mouse xenografted with human NCI-H1650 cells assessed as change in body weight at 10 to 20 mg/kg, po measured every 4 days for 21 days; format: organism-based; settings: in vivo, 504 h, dose 10-20 mg/kg, time 21 day
[30] = Toxicity in mouse xenografted with human NCI-H1650 cells assessed as increase in survival rate at 10 to 20 mg/kg, po treated for 21 days measured every 10 days for 50 days; format: organism-based; settings: in vivo, 504 h, dose 10-20 mg/kg, time 21 day
MGC-803 [31] = experiment: cells; settings: Homo sapiens, MGC-803, 72 h
Description: Antiproliferative activity against human MGC-803 cells incubated for 72 hrs by MTT assay

MGC-803 [32] = experiment: cells; settings: Homo sapiens, MGC-803, 72 h; remark: listed apart in the source
Description: Antiproliferative activity against human MGC-803 LSD knock out cells incubated for 72 hrs by MTT assay

SGC-7901 = experiment: cells; settings: Homo sapiens, SGC-7901, 72 h
Description: Antiproliferative activity against human SGC-7901 cells incubated for 72 hrs by MTT assay

GES1 = experiment: cells; settings: Homo sapiens, GES1, 72 h
Description: Antiproliferative activity against human GES1 cells incubated for 72 hrs by MTT assay

MCF7 = experiment: cells; settings: Homo sapiens, MCF7, 72 h
Description: Antiproliferative activity against human MCF7 cells incubated for 72 hrs by MTT assay

NCI-H1650 [33] = experiment: cells; settings: Homo sapiens, NCI-H1650, 72 h
Description: Antiproliferative activity against human NCI-H1650 cells incubated for 72 hrs by MTT assay

A549 = experiment: cells; settings: Homo sapiens, A549, 72 h
Description: Antiproliferative activity against human A549 cells incubated for 72 hrs by MTT assay

NCI-H460 = experiment: cells; settings: Homo sapiens, NCI-H460, 72 h
Description: Antiproliferative activity against human NCI-H460 cells incubated for 72 hrs by MTT assay

PC-3 = experiment: cells; settings: Homo sapiens, PC-3, 72 h
Description: Antiproliferative activity against human PC-3 cells incubated for 72 hrs by MTT assay

ECa-109 cell line = experiment: cells; settings: Homo sapiens, ECa-109, 72 h
Description: Antiproliferative activity against human EC109 cells incubated for 72 hrs by MTT assay

## CCCSc1nc(Oc2c(OC)cc(CN[C@@H]3C[C@H]3c3ccccc3)cc2OC)c2nnn(Cc3cccc(Cl)c3)c2n1
[1]
  inhibition at 1 h, 1 µM: 25.5%
[2]
  inhibition at 1 h, 1 µM: 52%
NCI-H1650 [3]
  viability at 1 µM: 56.1%
NCI-H1650 [4]
  Activity: 40.3%
NCI-H1650 [5]
  Activity: 3.6%
NCI-H1650 [6]
  Activity: 0.022%
NCI-H1650 [7]
  viability at 2 µM: 55.4%
NCI-H1650 [8]
  Activity: 38.5%
NCI-H1650 [9]
  Activity: 6.02%
NCI-H1650 [10]
  Activity: 0.138%
NCI-H1650 [11]
  viability at 4 µM: 54.3%
NCI-H1650 [12]
  Activity: 38.4%
NCI-H1650 [13]
  Activity: 7.32%
NCI-H1650 [14]
  Activity: 0.041%
NCI-H1650 [15]
  Activity: 43.9%
NCI-H1650 [16]
  Activity: 44.5%
NCI-H1650 [17]
  Activity: 45.7%
NCI-H1650 [18]
  Activity: 51.44%
NCI-H1650 [19]
  Activity: 15.24%
NCI-H1650 [20]
  Activity: 33.32%
NCI-H1650 [21]
  Activity: 49.59%
NCI-H1650 [22]
  Activity: 10.6%
NCI-H1650 [23]
  Activity: 39.81%
NCI-H1650 [24]
  Activity: 48.98%
NCI-H1650 [25]
  Activity: 7.76%
NCI-H1650 [26]
  Activity: 43.26%
NCI-H1650 [27]
  Activity: 41.5%
NCI-H1650 [28]
  Activity: 64%
[29]
  Activity: Non-Toxic
[30]
  Activity: Non-Toxic
MGC-803 [31]
  IC50: 5.1 µM
MGC-803 [32]
  IC50: > 20 µM
SGC-7901
  IC50: 9.5 µM
GES1
  IC50: > 20 µM
MCF7
  IC50: 13.4 µM
NCI-H1650 [33]
  IC50: 4.3 µM
A549
  IC50: 7.9 µM
NCI-H460
  IC50: 13.6 µM
PC-3
  IC50: 7.5 µM
ECa-109 cell line
  IC50: 15.2 µM
